Target: T1, Amine oxidase [flavin-containing] B (Rattus norvegicus, UniProt P19643)
T1 sequence (P19643 whole entry): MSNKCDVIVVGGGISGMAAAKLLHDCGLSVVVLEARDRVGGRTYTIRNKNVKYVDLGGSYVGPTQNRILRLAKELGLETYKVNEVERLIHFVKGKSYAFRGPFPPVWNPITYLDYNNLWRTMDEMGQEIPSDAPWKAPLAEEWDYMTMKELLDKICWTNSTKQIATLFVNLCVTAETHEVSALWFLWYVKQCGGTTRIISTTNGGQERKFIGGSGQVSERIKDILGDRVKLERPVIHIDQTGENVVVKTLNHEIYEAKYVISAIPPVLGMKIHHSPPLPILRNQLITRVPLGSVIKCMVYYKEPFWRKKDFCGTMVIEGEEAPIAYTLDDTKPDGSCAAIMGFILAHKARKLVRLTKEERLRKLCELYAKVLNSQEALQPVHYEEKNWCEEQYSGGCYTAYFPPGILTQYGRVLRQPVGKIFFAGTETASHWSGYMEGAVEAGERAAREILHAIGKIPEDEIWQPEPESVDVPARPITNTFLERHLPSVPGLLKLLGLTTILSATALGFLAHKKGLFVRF
Assay: (§1) Compound was evaluated for inhibitory activity against monoamine oxidase (MAO) type B by reversibility test before dialysis at a concentration of 0.1 uM
Details: read-out: Control

Row | Structure (SMILES) | remaining activity at 0.1 µM
1 | N#CCCn1nnc(-c2ccc(OCc3cccc(Cl)c3)cc2)n1 | 15%

Target: T1, Amine oxidase [flavin-containing] B
Assay: Ex vivo inhibitory activity against rat brain monoamine oxidase (MAO) type B at a dose of 5 mg/kg administered orally at 1 hr
Assay type: functional, organism-based
Parameters: dose 5 mg/kg, route oral
Details: po

Row | Structure (SMILES) | inhibition at 5 mg/kg
2 | OCCn1nnc(-c2ccc(OCc3ccccc3)cc2)n1 | 84%
3 | N#CCCn1nnc(-c2ccc(OCc3ccccc3)cc2)n1 | 74%
4 | OCCn1nnc(-c2ccc(OCc3cccc(Cl)c3)cc2)n1 | 71%
5 | N#CCCn1nnc(-c2ccc(OCc3cccc(Cl)c3)cc2)n1 | 81%

Target: T2, Amine oxidase [flavin-containing] A (Rattus norvegicus, UniProt P21396)
T2 sequence (P21396 whole entry): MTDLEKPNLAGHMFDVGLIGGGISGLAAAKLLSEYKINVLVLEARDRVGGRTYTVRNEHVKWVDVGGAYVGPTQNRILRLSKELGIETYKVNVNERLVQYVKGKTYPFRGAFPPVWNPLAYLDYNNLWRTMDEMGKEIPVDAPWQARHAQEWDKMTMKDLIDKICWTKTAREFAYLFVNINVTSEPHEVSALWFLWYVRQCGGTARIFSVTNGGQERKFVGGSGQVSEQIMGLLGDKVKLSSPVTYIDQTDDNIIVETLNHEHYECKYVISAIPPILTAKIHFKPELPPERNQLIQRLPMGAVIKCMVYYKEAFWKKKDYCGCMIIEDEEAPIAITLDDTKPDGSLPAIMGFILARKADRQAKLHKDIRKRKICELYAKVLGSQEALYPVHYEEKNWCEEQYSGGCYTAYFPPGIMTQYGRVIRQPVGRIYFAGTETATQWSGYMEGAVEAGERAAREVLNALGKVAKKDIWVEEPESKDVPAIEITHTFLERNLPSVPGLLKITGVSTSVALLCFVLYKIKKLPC
Assay: Ex vivo inhibitory activity against rat brain monoamine oxidase (MAO) type A at a dose of 5 mg/kg administered orally at 1 hr
Assay type: functional, organism-based
Parameters: dose 5 mg/kg, route oral
Details: po

Row | Structure (SMILES) | inhibition at 5 mg/kg
6 | OCCn1nnc(-c2ccc(OCc3ccccc3)cc2)n1 | 4%
7 | N#CCCn1nnc(-c2ccc(OCc3ccccc3)cc2)n1 | 12%
8 | OCCn1nnc(-c2ccc(OCc3cccc(Cl)c3)cc2)n1 | 15%
9 | N#CCCn1nnc(-c2ccc(OCc3cccc(Cl)c3)cc2)n1 | 18%

Target: T2, Amine oxidase [flavin-containing] A
Assay: In vitro inhibitory activity against rat brain Monoamine oxidase A
Details: not given

Row | Structure (SMILES) | IC50
10 | OCCn1nnc(-c2ccc(Cl)cc2)n1 | 66 µM
11 | OCCCn1nnc(-c2ccc(-c3ccccc3)cc2)n1 | 4.6 µM
12 | N#CCCn1nnc(-c2ccc(OCc3ccc(Cl)cc3)cc2)n1 | > 100 µM
13 | COc1ccc(-c2nnn(CCC#N)n2)cc1 | 16.6 µM
14 | N#CCCn1nnc(-c2ccc(Cl)cc2)n1 | 6.5 µM
15 | Cc1ccc(COc2ccc(-c3nnn(CCC#N)n3)cc2)cc1 | > 100 µM
16 | Cc1ccc(COc2ccc(-c3nnn(CCO)n3)cc2)cc1 | > 100 µM
17 | OCCn1nnc(-c2ccc(OCc3ccc(F)cc3)cc2)n1 | > 100 µM
18 | N#CCCCCn1nnc(-c2ccc(-c3ccccc3)cc2)n1 | 26 µM
19 | COc1ccc(-c2nnn(CCO)n2)cc1 | 46 µM
20 | Cc1ccccc1COc1ccc(-c2nnn(CCC#N)n2)cc1 | > 100 µM
21 | OCCn1nnc(-c2ccc(OCc3ccccc3I)cc2)n1 | > 100 µM
22 | COc1ccc2c3c([nH]c2c1)C(C)=NCC3 [HARMALINE] | 0.012 µM
23 | OCCn1nnc(-c2ccc(OCc3ccccc3)cc2)n1 | 64 µM
24 | N#CCCn1nnc(-c2ccc(OCc3ccccc3I)cc2)n1 | > 100 µM
25 | N#CCCn1nnc(-c2ccccc2)n1 | 54 µM
26 | OCCn1nnc(-c2ccncc2)n1 | > 100 µM
27 | N#CCCn1nnc(-c2ccc([N+](=O)[O-])cc2)n1 | 18 µM
28 | OCCn1nnc(-c2ccc(OCc3cccc(Cl)c3)cc2)n1 | 58 µM
29 | N#CCCn1nnc(-c2ccc(OCc3cccc(Cl)c3)cc2)n1 | > 100 µM

Target: T2, Amine oxidase [flavin-containing] A
Assay: Ex vivo inhibitory activity against rat brain monoamine oxidase (MAO) type A at a dose of 5 mg/kg administered orally at 4 hr
Assay type: functional, organism-based
Parameters: dose 5 mg/kg, route oral
Details: po

Row | Structure (SMILES) | inhibition at 5 mg/kg
30 | OCCn1nnc(-c2ccc(OCc3ccccc3)cc2)n1 | 4%
31 | N#CCCn1nnc(-c2ccc(OCc3ccccc3)cc2)n1 | 0%
32 | OCCn1nnc(-c2ccc(OCc3cccc(Cl)c3)cc2)n1 | 14%
33 | N#CCCn1nnc(-c2ccc(OCc3cccc(Cl)c3)cc2)n1 | 8%

Target: T1, Amine oxidase [flavin-containing] B
Assay: Compound was evaluated for inhibitory activity against monoamine oxidase (MAO) type B by reversibility test after dialysis at a concentration of 0.001 uM
Details: read-out: Control

Row | Structure (SMILES) | remaining activity at 0.001 µM
34 | N#CCCn1nnc(-c2ccc(OCc3cccc(Cl)c3)cc2)n1 | 95%

Target: T1, Amine oxidase [flavin-containing] B
Assay: Inhibitory activity against monoamine oxidase (MAO) type B by reversibility test after dialysis at a concentration of 0.001 uM
Details: read-out: Control

Row | Structure (SMILES) | remaining activity at 0.001 µM
35 | N#CCCn1nnc(-c2ccc(OCc3ccccc3)cc2)n1 | 85%

Target: T2, Amine oxidase [flavin-containing] A
Assay: Ex vivo inhibitory activity against rat brain monoamine oxidase (MAO) type A at a dose of 5 mg/kg administered orally at 24 hr
Assay type: functional, organism-based
Parameters: dose 5 mg/kg, route oral
Details: po

Row | Structure (SMILES) | inhibition at 5 mg/kg
36 | N#CCCn1nnc(-c2ccc(OCc3ccccc3)cc2)n1 | 2%
37 | N#CCCn1nnc(-c2ccc(OCc3cccc(Cl)c3)cc2)n1 | 1%

Target: T1, Amine oxidase [flavin-containing] B
Assay: (§2) Compound was evaluated for inhibitory activity against monoamine oxidase (MAO) type B by reversibility test after dialysis at a concentration of 0.1 uM
Details: read-out: Control

Row | Structure (SMILES) | remaining activity at 0.1 µM
38 | N#CCCn1nnc(-c2ccc(OCc3cccc(Cl)c3)cc2)n1 | 87%

Target: T1, Amine oxidase [flavin-containing] B
Assay: as §1
Assay type: functional
Details: read-out: Control

Row | Structure (SMILES) | remaining activity at 0.1 µM
39 | OCCn1nnc(-c2ccc(OCc3ccccc3)cc2)n1 | 19%
40 | OCCn1nnc(-c2ccc(OCc3cccc(Cl)c3)cc2)n1 | 25%

Target: T1, Amine oxidase [flavin-containing] B
Assay: In vitro inhibitory activity against rat brain Monoamine oxidase B
Details: not given

Row | Structure (SMILES) | IC50
41 | OCCn1nnc(-c2ccc(Cl)cc2)n1 | 38 µM
42 | OCCCn1nnc(-c2ccc(-c3ccccc3)cc2)n1 | 1.36 µM
43 | N#CCCn1nnc(-c2ccc(OCc3ccc(Cl)cc3)cc2)n1 | 0.08 µM
44 | COc1ccc(-c2nnn(CCC#N)n2)cc1 | 37 µM
45 | N#CCCn1nnc(-c2ccc(Cl)cc2)n1 | 3.6 µM
46 | N#CCCCCn1nnc(-c2ccc(-c3ccccc3)cc2)n1 | 6 µM
47 | COc1ccc(-c2nnn(CCO)n2)cc1 | > 100 µM
48 | OCCn1nnc(-c2ccc(OCc3ccccc3I)cc2)n1 | 0.35 µM
49 | COc1ccc2c3c([nH]c2c1)C(C)=NCC3 [HARMALINE] | 150 µM
50 | OCCn1nnc(-c2ccc(OCc3ccccc3)cc2)n1 | 0.03 µM
51 | N#CCCn1nnc(-c2ccc(OCc3ccccc3I)cc2)n1 | > 270 µM
52 | N#CCCn1nnc(-c2ccccc2)n1 | > 100 µM
53 | OCCn1nnc(-c2ccncc2)n1 | > 100 µM
54 | N#CCCn1nnc(-c2ccc([N+](=O)[O-])cc2)n1 | 13.4 µM
55 | N#CCCn1nnc(-c2ccc(OCc3ccccc3)cc2)n1 | 0.002 µM
56 | OCCn1nnc(-c2ccc(OCc3cccc(Cl)c3)cc2)n1 | 0.2 µM
57 | N#CCCn1nnc(-c2ccc(OCc3cccc(Cl)c3)cc2)n1 | 0.1 µM

Target: T1, Amine oxidase [flavin-containing] B
Assay: Inhibitory activity against monoamine oxidase (MAO) type B by reversibility test before dialysis at a concentration of 0.1 uM
Details: read-out: Control

Row | Structure (SMILES) | remaining activity at 0.1 µM
58 | N#CCCn1nnc(-c2ccc(OCc3ccccc3)cc2)n1 | 12%

Target: T1, Amine oxidase [flavin-containing] B
Assay: Inhibitory activity against monoamine oxidase (MAO) type B by reversibility test before dialysis at a concentration of 0.001 uM
Details: read-out: Control

Row | Structure (SMILES) | remaining activity at 0.001 µM
59 | N#CCCn1nnc(-c2ccc(OCc3ccccc3)cc2)n1 | 65%

Target: T1, Amine oxidase [flavin-containing] B
Assay: Compound was evaluated for inhibitory activity against monoamine oxidase (MAO) type B by reversibility test before dialysis at a concentration of 0.001 uM
Assay type: functional
Details: read-out: Control

Row | Structure (SMILES) | remaining activity at 0.001 µM
60 | N#CCCn1nnc(-c2ccc(OCc3cccc(Cl)c3)cc2)n1 | 69%

Target: T1, Amine oxidase [flavin-containing] B
Assay: Inhibitory activity against monoamine oxidase (MAO) type B by reversibility test after dialysis at a concentration of 0.1 uM
Details: read-out: Control

Row | Structure (SMILES) | remaining activity at 0.1 µM
61 | N#CCCn1nnc(-c2ccc(OCc3ccccc3)cc2)n1 | 54%

Target: T1, Amine oxidase [flavin-containing] B
Assay: Ex vivo inhibitory activity against rat brain monoamine oxidase (MAO) type B at a dose of 5 mg/kg administered orally at 24 hr
Assay type: functional, organism-based
Parameters: dose 5 mg/kg, route oral
Details: po

Row | Structure (SMILES) | inhibition at 5 mg/kg
62 | N#CCCn1nnc(-c2ccc(OCc3ccccc3)cc2)n1 | 24%
63 | N#CCCn1nnc(-c2ccc(OCc3cccc(Cl)c3)cc2)n1 | 9%

Target: T1, Amine oxidase [flavin-containing] B
Assay: Ex vivo inhibitory activity against rat brain monoamine oxidase (MAO) type B at a dose of 5 mg/kg administered orally at 4 hr
Assay type: functional, organism-based
Parameters: dose 5 mg/kg, route oral
Details: po

Row | Structure (SMILES) | inhibition at 5 mg/kg
64 | OCCn1nnc(-c2ccc(OCc3ccccc3)cc2)n1 | 63%
65 | N#CCCn1nnc(-c2ccc(OCc3ccccc3)cc2)n1 | 69%
66 | OCCn1nnc(-c2ccc(OCc3cccc(Cl)c3)cc2)n1 | 55%
67 | N#CCCn1nnc(-c2ccc(OCc3cccc(Cl)c3)cc2)n1 | 63%

Target: T1, Amine oxidase [flavin-containing] B
Assay: as §2
Assay type: functional
Details: read-out: Control

Row | Structure (SMILES) | remaining activity at 0.1 µM
68 | OCCn1nnc(-c2ccc(OCc3ccccc3)cc2)n1 | 107%
69 | OCCn1nnc(-c2ccc(OCc3cccc(Cl)c3)cc2)n1 | 109%

Target: T2, Amine oxidase [flavin-containing] A
Assay: Ex vivo inhibitory activity against rat brain monoamine oxidase (MAO) type A at a dose of 5 mg/kg administered orally at 0.5 hr
Assay type: functional, organism-based
Parameters: dose 5 mg/kg, route oral
Details: po

Row | Structure (SMILES) | inhibition at 5 mg/kg
70 | OCCn1nnc(-c2ccc(OCc3ccccc3)cc2)n1 | 5%
71 | N#CCCn1nnc(-c2ccc(OCc3ccccc3)cc2)n1 | 6%
72 | OCCn1nnc(-c2ccc(OCc3cccc(Cl)c3)cc2)n1 | 15%
73 | N#CCCn1nnc(-c2ccc(OCc3cccc(Cl)c3)cc2)n1 | 13%

Test system: not listed separately
Assay: Selectivity for the B form was estimated by the IC50(MAO A)/IC50(MAO B) ratio.
Details: not given

Row | Structure (SMILES) | Selectivity
74 | COc1ccc2c3c([nH]c2c1)C(C)=NCC3 [HARMALINE] | 5
75 | OCCn1nnc(-c2ccc(OCc3ccccc3)cc2)n1 | 2100
76 | N#CCCn1nnc(-c2ccc(OCc3ccccc3)cc2)n1 | 37000
77 | OCCn1nnc(-c2ccc(OCc3cccc(Cl)c3)cc2)n1 | 290
78 | N#CCCn1nnc(-c2ccc(OCc3cccc(Cl)c3)cc2)n1 | > 1000

Target: T1, Amine oxidase [flavin-containing] B
Assay: Ex vivo inhibitory activity against rat brain monoamine oxidase (MAO) type B at a dose of 5 mg/kg administered orally at 0.5 hr
Assay type: functional, organism-based
Parameters: dose 5 mg/kg, route oral
Details: po

Row | Structure (SMILES) | inhibition at 5 mg/kg
79 | OCCn1nnc(-c2ccc(OCc3ccccc3)cc2)n1 | 84%
80 | N#CCCn1nnc(-c2ccc(OCc3ccccc3)cc2)n1 | 76%
81 | OCCn1nnc(-c2ccc(OCc3cccc(Cl)c3)cc2)n1 | 69%
82 | N#CCCn1nnc(-c2ccc(OCc3cccc(Cl)c3)cc2)n1 | 72%

Reference: ChEMBL document CHEMBL1128201, “Selective and potent monoamine oxidase type B inhibitors: 2-substituted 5-aryltetrazole derivatives” (J Med Chem, 1995)
